pIC50: −log10 of the molar value. “And” between values parts separate entries of the source, which are not always exact repeats. Identical values can stand only once. “Also recorded” adds a separate entry of the source.
Assays:
ACHN = assay: CellTiter-Glo cytotoxicity, cancer cell line panel; format: cell-based; settings: Homo sapiens, Papillary renal cell carcinoma
Protocol: (§1) The objective of this study is to investigate potential cell killing effect of Compounds 1-15 on 3 cancer cell lines. 50% inhibition concentration (IC50) was determined for these compounds in various cancer cell lines using CellTiter-Glo™ luminescent cell viability assay at different compound concentrations. Each cell line (e.g., NCI-H209; NCI-H69; and SW1271) was treated with Compounds 1-15 and culture medium contains 0.2% [v/v] DMSO vehicle control. All the cells were cultured in the media supplemented with 10-20% fetal bovine serum at 37° C., 5% CO2 and 95% humidity.
(§2) The objective of this study is to investigate the effect of Compound 1 on cytotoxicity against 61 different types of cancer cell lines. IC50 were values were obtained using CellTiter-Glo™ as described above. Each cell line shown in Table 3 was treated with Compound 1, a standard chemotherapy drug, cisplatin, as reference control and culture medium contains 0.2% [v/v] DMSO vehicle control. All cancer cell lines were cultured in media supplemented with 10-20% fetal bovine serum at 37° C., 5% CO2 and 95% humidity.

BT-474 = assay: CellTiter-Glo cytotoxicity, cancer cell line panel; format: cell-based; settings: Homo sapiens; BT-474, Invasive ductal carcinoma
Protocol: as §1, §2

Caki-2 = assay: CellTiter-Glo cytotoxicity, cancer cell line panel; format: cell-based; settings: Homo sapiens; Caki-2, Papillary renal cell carcinoma
Protocol: as §1, §2

HCCLM3 = assay: CellTiter-Glo cytotoxicity, cancer cell line panel; format: cell-based; settings: Homo sapiens; HCCLM3, Hepatocellular carcinoma
Protocol: as §1, §2

HLF = assay: CellTiter-Glo cytotoxicity, cancer cell line panel; format: cell-based; settings: Hepatocellular carcinoma
Protocol: as §1, §2

HUH-1 = assay: CellTiter-Glo cytotoxicity, cancer cell line panel; format: cell-based; settings: Homo sapiens; HUH-1, Hepatocellular carcinoma
Protocol: as §1, §2

HUH-6 CLONE5 = assay: CellTiter-Glo cytotoxicity, cancer cell line panel; format: cell-based; settings: HUH-6 CLONE5, Hepatoblastoma carcinoma
Protocol: as §1, §2

Hep G2 = assay: CellTiter-Glo cytotoxicity, cancer cell line panel; format: cell-based; settings: Homo sapiens, HepG2; Hep G2, Hepatoblastoma carcinoma
Protocol: as §1, §2

Hep3B = assay: CellTiter-Glo cytotoxicity, cancer cell line panel; format: cell-based; settings: Homo sapiens, Hepatocellular carcinoma
Protocol: as §1, §2

JHH-1 = assay: CellTiter-Glo cytotoxicity, cancer cell line panel; format: cell-based; settings: JHH1; JHH-1, Hepatocellular carcinoma
Protocol: as §1, §2

JHH-4 = assay: CellTiter-Glo cytotoxicity, cancer cell line panel; format: cell-based; settings: JHH-4, Hepatocellular carcinoma
Protocol: as §1, §2

JHH-6 = assay: CellTiter-Glo cytotoxicity, cancer cell line panel; format: cell-based; settings: JHH-6, Hepatocellular carcinoma
Protocol: as §1, §2

LN-229 = assay: CellTiter-Glo cytotoxicity, cancer cell line panel; format: cell-based; settings: Homo sapiens; LN-229, Glioblastoma
Protocol: as §1, §2

Li-7 = assay: CellTiter-Glo cytotoxicity, cancer cell line panel; format: cell-based; settings: Li-7, Hepatocellular carcinoma
Protocol: as §1, §2

MKN45 = assay: CellTiter-Glo cytotoxicity, cancer cell line panel; format: cell-based; settings: Homo sapiens, MKN-45; MKN45, Gastric adenocarcinoma
Protocol: as §1, §2

NCI-H1975 = assay: CellTiter-Glo cytotoxicity, cancer cell line panel; format: cell-based; settings: Homo sapiens; NCI-H1975, Lung adenocarcinoma
Protocol: as §1, §2

OCUG-1 = assay: CellTiter-Glo cytotoxicity, cancer cell line panel; format: cell-based; settings: OCUG-1, Gallbladder carcinoma
Protocol: as §1, §2

OVCAR-3 = assay: CellTiter-Glo cytotoxicity, cancer cell line panel; format: cell-based; settings: Homo sapiens; OVCAR-3, High grade ovarian serous adenocarcinoma
Protocol: as §1, §2

PLC/PRF/5 = assay: CellTiter-Glo cytotoxicity, cancer cell line panel; format: cell-based; settings: Homo sapiens; PLC/PRF/5, Hepatocellular carcinoma
Protocol: as §1, §2

SK-HEP-1 = assay: CellTiter-Glo cytotoxicity, cancer cell line panel; format: cell-based; settings: Homo sapiens, SK-HEP1; SK-HEP-1, Hepatocellular carcinoma
Protocol: as §1, §2

SNU-387 = assay: CellTiter-Glo cytotoxicity, cancer cell line panel; format: cell-based; settings: Homo sapiens; SNU-387, Hepatocellular carcinoma
Protocol: as §1, §2

SNU-449 = assay: CellTiter-Glo cytotoxicity, cancer cell line panel; format: cell-based; settings: Homo sapiens; SNU-449, Hepatocellular carcinoma
Protocol: as §1, §2

SNU-739 = assay: CellTiter-Glo cytotoxicity, cancer cell line panel; format: cell-based; settings: SNU-739, Hepatocellular carcinoma
Protocol: as §1, §2

SW 156 = assay: CellTiter-Glo cytotoxicity, cancer cell line panel; format: cell-based; settings: SW 156, Renal cell carcinoma
Protocol: as §1, §2

Saos-2 = assay: CellTiter-Glo cytotoxicity, cancer cell line panel; format: cell-based; settings: Homo sapiens; Saos-2, Osteosarcoma
Protocol: as §1, §2

UO.31 = assay: CellTiter-Glo cytotoxicity, cancer cell line panel; format: cell-based; settings: Homo sapiens; UO.31, Renal cell carcinoma
Protocol: as §1, §2

[1] = test system: Hep3B2.1-7-Luc liver orthotopic model; assay: Liver orthotopic in vivo analysis; settings: for mean Total Flux: Q3D for a week then QD three weeks, day 28 post grouping; for Whole liver (with tumor) weights: individual animals 1-8; for Tumor sizes vs vehicle: nonparametric ANOVA followed by Kruskal-Wallis test; for Tumor sizes (signal intensity) vs vehicle: two-way ANOVA and Bonferroni post-test
Protocol: In this study, the in vivo therapeutic effect of Compound 1 on liver cancer was evaluated in an orthotopic mouse model using Hep3B2.1-7-Luc cell line. Three groups of orthotopic model in BALB/c nude mice were treated with vehicle, Compound 1 at 10 mg/kg, and Compound 1 at 20 mg/kg orally (p.o.) Q3D for a week followed by QD for three weeks. The mean Total Flux (photons/s/10^6) of the mice in vehicle control group reached 1223.01 photons/s/10^6 at day 28 post grouping. The mean Total Flux (photons/s/10^6) was 464.74 and 306.74 for Compound 1 (10 mg/kg) group and Compound 1 (20 mg/kg) group at day 28 post grouping.
A One-way ANOVA combined with Dunnett post-test was performed to compare the results of serum-derived blood chemistries (including ALT, AST, ALP, TP, ALB, UA, UREA, Glu, TC, TG, Ca, Mg, P, CK, LDH, GLB, A/G and CREA) among vehicle and treatment groups. A nonparametric ANOVA followed by Kruskal-Wallis test was performed to compare serum-derived blood chemistries (including ALT, AST and ALP) among vehicle and treatment groups.

**Q.** How did the pIC50 (ACHN) turn out when `N=C(N)c1ccc(OCCCCCOc2ccc(C(=N)N)nc2)cc1` [Compound 1, 5-(5-(4-carbamimidoylphenoxy)pentyloxy)picolinimidamide] was run?
**A.** The pIC50 was 5.33.

**Q.** What about the pIC50 (BT-474) of the same compound?
**A.** Its pIC50 is 4.80.

**Q.** And the pIC50 (Caki-2)?
**A.** The pIC50 was 5.38.

**Q.** What about the pIC50 (HCCLM3) of the same compound?
**A.** Its pIC50 is 4.92.

**Q.** And the pIC50 (HLF)?
**A.** The pIC50 was 5.69.

**Q.** What about the pIC50 (HUH-1) of the same compound?
**A.** Its pIC50 is 5.49.

**Q.** And the pIC50 (HUH-6 CLONE5)?
**A.** The pIC50 was 6.07.

**Q.** And the pIC50 (Hep G2)?
**A.** Its pIC50 is 6.47.

**Q.** What about the pIC50 (Hep3B) of the same compound?
**A.** The pIC50 was 6.55.

**Q.** And the pIC50 (JHH-1)?
**A.** Its pIC50 is 5.41.

**Q.** And the pIC50 (JHH-4)?
**A.** The pIC50 was 5.90.

**Q.** And the pIC50 (JHH-6)?
**A.** The pIC50 was 6.42.

**Q.** And the pIC50 (LN-229)?
**A.** The pIC50 was 5.80.

**Q.** And the pIC50 (Li-7)?
**A.** Its pIC50 is 6.12.

**Q.** What about the pIC50 (MKN45) of the same compound?
**A.** The pIC50 was 6.19.

**Q.** What about the pIC50 (NCI-H1975) of the same compound?
**A.** Its pIC50 is 5.58.

**Q.** And the pIC50 (OCUG-1)?
**A.** Its pIC50 is 5.54.

**Q.** What about the pIC50 (OVCAR-3) of the same compound?
**A.** Its pIC50 is 5.71.

**Q.** And the pIC50 (PLC/PRF/5)?
**A.** Its pIC50 is 5.38.

**Q.** And the pIC50 (SK-HEP-1)?
**A.** Its pIC50 is 5.33.

**Q.** What about the pIC50 (SNU-387) of the same compound?
**A.** Its pIC50 is 5.40.

**Q.** And the pIC50 (SNU-449)?
**A.** Its pIC50 is 5.80.

**Q.** And the pIC50 (SNU-739)?
**A.** The pIC50 was 5.65.

**Q.** And the pIC50 (SW 156)?
**A.** The pIC50 was 5.20.

**Q.** And the pIC50 (Saos-2)?
**A.** Its pIC50 is 5.62.

**Q.** What about the pIC50 (UO.31) of the same compound?
**A.** Its pIC50 is 5.46.

**Q.** And the “tolerability, body weight loss” value ([1]; 10 mg/kg and 20 mg/kg p.o.)?
**A.** The value was “well tolerated in both 10 mg/kg and 20 mg/kg groups with no obvious body weight loss; also recorded: well tolerated at both doses level tested”.

**Q.** What about the “anti-tumor effect compared to vehicle group (Total Flux)” value ([1]; 10 mg/kg p.o.) of the same compound?
**A.** Its value is “significant anti-tumor effect at day 8 to day 18 and day 28”.

**Q.** And the “mean Total Flux” value ([1]; 10 mg/kg p.o.)?
**A.** Its value is 464.74 photons/s/10^6.

**Q.** What about the “Whole liver (with tumor) weights” value ([1]; 10 mg/kg) of the same compound?
**A.** The value was 1.334 g and 2.415 g and 2.602 g and 2.280 g and 3.035 g and 1.817 g and 2.019 g and 2.311 g.

**Q.** What about the “Tumor sizes vs vehicle” value ([1]; 10 mg/kg) of the same compound?
**A.** The value was “no significant difference during the treatment days”.

**Q.** And the “Tumor sizes (signal intensity) vs vehicle” value ([1]; 10 mg/kg)?
**A.** The value was “significant difference at day 25 and extremely significant difference at day 28”.

**Q.** What about the “anti-tumor effect compared to vehicle group (Total Flux)” value ([1]; 20 mg/kg p.o.) of the same compound?
**A.** The value was “significant anti-tumor effect at day 8 to day 28”.

**Q.** And the “mean Total Flux” value ([1]; 20 mg/kg p.o.)?
**A.** The value was 306.74 photons/s/10^6.

**Q.** And the “in vivo anti-tumor activity (summary)” value ([1]; 20 mg/kg, day 25 and day 28)?
**A.** The value was “significant in vivo anti-tumor activity”.

**Q.** What about the “Whole liver (with tumor) weights” value ([1]; 20 mg/kg) of the same compound?
**A.** The value was 1.681 g and 2.243 g and 1.645 g and 2.012 g and 1.926 g and 1.610 g and 1.603 g and 2.260 g.

**Q.** And the “Tumor sizes vs vehicle” value ([1]; 20 mg/kg)?
**A.** The value was “significant difference at day 28 and extremely significant difference at day 25”.

**Q.** What about the “Tumor sizes (signal intensity) vs vehicle” value ([1]; 20 mg/kg) of the same compound?
**A.** The value was “extremely significant difference at day 22 to day 28”.

**Q.** And the “levels of liver injury/damage markers ALT and AST” value ([1]; serum, 10 mg/kg and 20 mg/kg)?
**A.** The value was “significant reduction in levels of liver injury/damage markers, i.e., ALT and AST, in a dose dependent manner”.

From patent US20250388542A1, “ANALOGUES OF PENTAMIDINE AND USES THEREFOR” (Auransa Inc., priority 2018, published 2025)
